Our source for the mutagenic call values is PubChem BioAssay AID1259407 (Chemical Carcinogenesis Research Information System (CCRIS), 2018).

This data set concerns CCRIS mutagenicity, Ames/micronucleus/aberration tests. The data set is described as follows: CCRIS mutagenicity studies.
Setting [1] is: Test System: AMES SALMONELLA TYPHIMURIUM, Strain/Indicator: TA98, Metabolic Activation: NONE, Method: PREINCUBATION
Where [2] appears, read: Test System: AMES SALMONELLA TYPHIMURIUM, Strain/Indicator: TA98, Metabolic Activation: NONE, Method: STANDARD PLATE.
Setting [3] is: Test System: AMES SALMONELLA TYPHIMURIUM, Strain/Indicator: TA100, Metabolic Activation: NONE, Method: PREINCUBATION
[4] abbreviates: Test System: AMES SALMONELLA TYPHIMURIUM, Strain/Indicator: TA1535, Metabolic Activation: NONE, Method: PREINCUBATION

Molecules are shown by their SMILES. Active and inactive are the calls of the source. No rule for the calls is given here.

On to `COc1c2occc2cc2ccc(=O)oc12`, for which the mutagenic call by setting is: (Test System: AMES SALMONELLA TYPHIMURIUM, Strain/Indicator: TA92, Metabolic Activation: NONE, Method: SPOT TEST) “inactive; negative”; (Test System: AMES SALMONELLA TYPHIMURIUM, Strain/Indicator: TA92, Metabolic Activation: RAT, LIVER, S-9, AROCLOR 1254, Method: SPOT TEST) “inactive; negative”; (Test System: AMES SALMONELLA TYPHIMURIUM, Strain/Indicator: TA94, Metabolic Activation: NONE, Method: SPOT TEST) “inactive; negative”; (Test System: AMES SALMONELLA TYPHIMURIUM, Strain/Indicator: TA94, Metabolic Activation: RAT, LIVER, S-9, AROCLOR 1254, Method: SPOT TEST) “inactive; negative”; (Test System: AMES SALMONELLA TYPHIMURIUM, Strain/Indicator: TA97, Metabolic Activation: NONE, Method: SPOT TEST) “inactive; negative”; (Test System: AMES SALMONELLA TYPHIMURIUM, Strain/Indicator: TA97, Metabolic Activation: RAT, LIVER, S-9, AROCLOR 1254, Method: SPOT TEST) “inactive; negative”. Further, the mutagenic call is “inactive; negative” (Test System: AMES SALMONELLA TYPHIMURIUM, Strain/Indicator: TA98, Metabolic Activation: HAMSTER, LIVER, S-9 (30%), AROCLOR 1254, Method: PREINCUBATION); “inactive; negative” under setting [1]; “inactive; negative” (Test System: AMES SALMONELLA TYPHIMURIUM, Strain/Indicator: TA98, Metabolic Activation: NONE, Method: SPOT TEST); “inactive; negative” under setting [2]; “inactive; negative” (Test System: AMES SALMONELLA TYPHIMURIUM, Strain/Indicator: TA98, Metabolic Activation: RAT, LIVER, S-9, AROCLOR 1254, Method: SPOT TEST); “inactive; negative” (Test System: AMES SALMONELLA TYPHIMURIUM, Strain/Indicator: TA98, Metabolic Activation: RAT, LIVER, S-9, PHENOBARBITAL, Method: STANDARD PLATE). Moreover, the mutagenic call (Test System: AMES SALMONELLA TYPHIMURIUM, Strain/Indicator: TA100, Metabolic Activation: HAMSTER, LIVER, S-9 (5%, 10% OR 30%), AROCLOR 1254, Method: PREINCUBATION) was “active; positive”; the mutagenic call under setting [3] was “inactive; negative”; the mutagenic call (Test System: AMES SALMONELLA TYPHIMURIUM, Strain/Indicator: TA100, Metabolic Activation: NONE, Method: SPOT TEST) is “inactive; negative”; the mutagenic call (Test System: AMES SALMONELLA TYPHIMURIUM, Strain/Indicator: TA100, Metabolic Activation: RAT, LIVER, S-9 (10%), AROCLOR 1254, Method: PREINCUBATION) was “inactive; negative”; the mutagenic call (Test System: AMES SALMONELLA TYPHIMURIUM, Strain/Indicator: TA100, Metabolic Activation: RAT, LIVER, S-9, AROCLOR 1254, Method: SPOT TEST) was “inactive; negative”; the mutagenic call (Test System: AMES SALMONELLA TYPHIMURIUM, Strain/Indicator: TA102, Metabolic Activation: HAMSTER, LIVER, S-9 (5%), AROCLOR 1254, Method: PREINCUBATION) is “active; positive”. The mutagenic call was “inactive; negative” (Test System: AMES SALMONELLA TYPHIMURIUM, Strain/Indicator: TA102, Metabolic Activation: NONE, Method: PREINCUBATION); “inactive; negative” (Test System: AMES SALMONELLA TYPHIMURIUM, Strain/Indicator: TA102, Metabolic Activation: NONE, Method: SPOT TEST); “active; positive” (Test System: AMES SALMONELLA TYPHIMURIUM, Strain/Indicator: TA102, Metabolic Activation: RAT, LIVER, S-9 (5%), AROCLOR 1254, Method: PREINCUBATION); “inactive; negative” (Test System: AMES SALMONELLA TYPHIMURIUM, Strain/Indicator: TA102, Metabolic Activation: RAT, LIVER, S-9, AROCLOR 1254, Method: SPOT TEST); “active; positive” (Test System: AMES SALMONELLA TYPHIMURIUM, Strain/Indicator: TA104, Metabolic Activation: HAMSTER, LIVER, S-9 (30%), AROCLOR 1254, Method: PREINCUBATION); “active; positive” (Test System: AMES SALMONELLA TYPHIMURIUM, Strain/Indicator: TA104, Metabolic Activation: RAT, LIVER, S-9 (5% OR 10%), AROCLOR 1254, Method: PREINCUBATION). The mutagenic call (Test System: AMES SALMONELLA TYPHIMURIUM, Strain/Indicator: TA104, Metabolic Activation: RAT, LIVER, S-9(30%), AROCLOR 1254, Method: PREINCUBATION) was “active; positive”; the mutagenic call (Test System: AMES SALMONELLA TYPHIMURIUM, Strain/Indicator: TA1535, Metabolic Activation: HAMSTER, LIVER, S-9 (30%), AROCLOR 1254, Method: PREINCUBATION) was “inactive; negative”; the mutagenic call under setting [4] was “inactive; negative”; the mutagenic call (Test System: AMES SALMONELLA TYPHIMURIUM, Strain/Indicator: TA1535, Metabolic Activation: RAT, LIVER, S-9 (30%), AROCLOR 1254, Method: PREINCUBATION) is “inactive; negative”.
As for `ClCc1ccccc1CCl`, the mutagenic call under setting [2] was “inactive; negative”.
Take `CC(=O)c1cc(N)ccc1OCC(O)CNC(C)(C)C` (centres undefined): the mutagenic call is “inactive; negative” under setting [1]; “inactive; negative” (Test System: AMES SALMONELLA TYPHIMURIUM, Strain/Indicator: TA98, Metabolic Activation: RAT, LIVER, S-9, PHENOBARBITAL AND 5,6-BENZOFLAVONE (10 OR 50 µL/PLATE), Method: PREINCUBATION); “inactive; negative” under setting [3]; “inactive; negative” (Test System: AMES SALMONELLA TYPHIMURIUM, Strain/Indicator: TA100, Metabolic Activation: RAT, LIVER, S-9, PHENOBARBITAL AND 5,6-BENZOFLAVONE (10 OR 50 µL/PLATE), Method: PREINCUBATION); “inactive; negative” under setting [4]; “inactive; negative” (Test System: AMES SALMONELLA TYPHIMURIUM, Strain/Indicator: TA1535, Metabolic Activation: RAT, LIVER, S-9, PHENOBARBITAL AND 5,6-BENZOFLAVONE (10 OR 50 µL/PLATE), Method: PREINCUBATION). Further, the mutagenic call by setting is: (Test System: AMES SALMONELLA TYPHIMURIUM, Strain/Indicator: TA1537, Metabolic Activation: NONE, Method: PREINCUBATION) “inactive; negative”; (Test System: AMES SALMONELLA TYPHIMURIUM, Strain/Indicator: TA1537, Metabolic Activation: RAT, LIVER, S-9, PHENOBARBITAL AND 5,6-BENZOFLAVONE (10 OR 50 µL/PLATE), Method: PREINCUBATION) “inactive; negative”; (Test System: E. COLI, Strain/Indicator: WP2 UVRA, Metabolic Activation: NONE, Method: PREINCUBATION) “inactive; negative”; (Test System: E. COLI, Strain/Indicator: WP2 UVRA, Metabolic Activation: RAT, LIVER, S-9, PHENOBARBITAL AND 5,6-BENZOFLAVONE, Method: PREINCUBATION) “inactive; negative”.
With `O=[N+]([O-])c1ccc(-c2nc3sccn3c2[N+](=O)[O-])cc1`, the mutagenic call is “active; positive” under setting [2]; “active; positive” (Test System: AMES SALMONELLA TYPHIMURIUM, Strain/Indicator: TA100, Metabolic Activation: NONE, Method: STANDARD PLATE); “inactive; negative” (Test System: AMES SALMONELLA TYPHIMURIUM, Strain/Indicator: TA1535, Metabolic Activation: NONE, Method: STANDARD PLATE); “active; positive” (Test System: AMES SALMONELLA TYPHIMURIUM, Strain/Indicator: TA1537, Metabolic Activation: NONE, Method: STANDARD PLATE); “active; positive” (Test System: AMES SALMONELLA TYPHIMURIUM, Strain/Indicator: TA1538, Metabolic Activation: NONE, Method: STANDARD PLATE).
